Data as given in ChEMBL document CHEMBL4270663, “6-Benzhydryl-4-amino-quinolin-2-ones as Potent Cannabinoid Type 1 (CB1) Receptor Inverse Agonists and Chemical Modifications for Peripheral Selectivity” (J Med Chem, 2018).
The source made the active and inactive calls. No cut-off for these calls is given here.

Experiments:
Mus musculus [1] = assay: Antiobesity activity in diet induced obese C57BL/6J mouse model assessed as decrease in total cholesterol level at 3 to 10 mg/kg, po administered as daily dose measured at day 26 post last dose; assay type: functional, organism-based
[2] = Drug uptake in brain of diet-induced obese C57BL/6J mouse model at 1 mg/kg, po administered as daily dose measured at 2 hrs post last dose on day 23; assay type: ADME, organism-based; conditions: in vivo
[3] = Ratio of drug level in brain to plasma of diet-induced obese C57BL/6J mouse model at 10 mg/kg, po administered as daily dose measured at 2 hrs post last dose on day 23; assay type: ADME, organism-based; conditions: read-out: BPR
[4] = Ratio of drug level in brain to plasma of diet-induced obese C57BL/6J mouse model at 3 mg/kg, po administered as daily dose measured at 2 hrs post last dose on day 23; assay type: ADME, organism-based; conditions: read-out: BPR
Mus musculus [5] = assay: Antiobesity activity in diet induced obese C57BL/6J mouse model assessed as decrease in body weight at 3 mg/kg, po administered as daily dose measured every day for 5 days and continuing every other day till day 8 and 15; assay type: functional, organism-based
[6] = Drug uptake in C57BL/6J mouse plasma at 20 mg/kg, po measured after 4 hrs; assay type: ADME, organism-based
[7] = Drug uptake in brain of diet-induced obese C57BL/6J mouse model at 10 mg/kg, po administered as daily dose measured at 2 hrs post last dose on day 23; assay type: ADME, organism-based; conditions: in vivo
[8] = Drug uptake in plasma of wild type CF-1 mouse at 20 mg/kg, po measured at 2 hrs post last dose on day 1; assay type: ADME, organism-based
Cannabinoid receptor 1 [9] = biological target: T1, Cannabinoid receptor 1 (Homo sapiens, UniProt P21554); assay: Potency index, ratio of rimonabant IC50 to compound IC50 for displacement of [3H]-CP-55940 from human CB1 receptor expressed in CHO-K1 cell membranes
Mus musculus [10] = assay: Antiobesity activity in diet induced obese C57BL/6J mouse model assessed as decrease in food intake at 3 to 10 mg/kg, po administered as daily dose measured every day for 5 days and continuing every other day till day 17; assay type: functional, organism-based
Mus musculus [11] = assay: Antiobesity activity in diet induced obese C57BL/6J mouse model assessed as decrease in body weight at 3 to 10 mg/kg, po administered as daily dose measured every day for 5 days and continuing every other day till day 17; assay type: functional, organism-based
[12] = Drug uptake in brain of diet-induced obese C57BL/6J mouse model at 3 mg/kg, po administered as daily dose measured at 2 hrs post last dose on day 2; assay type: ADME, organism-based; conditions: in vivo
Mus musculus [13] = assay: Induction of insulin sensitivity in diet induced obese C57BL/6J mouse model at 3 to 10 mg/kg, po administered as daily dose measured at day 26 post last dose; assay type: functional, organism-based
Cytochrome P450 3A4 = Cytochrome P450 3A4 (Homo sapiens, UniProt P08684); assay: Inhibition of CYP3A4 in human liver microsomes using midazolam/testosterone as substrate after 10 to 30 mins by LC/MS analysis; assay type: ADME
[14] = Ratio of drug level in brain to plasma of wild type CF-1 mouse at 20 mg/kg, po; assay type: ADME, organism-based; conditions: read-out: BPR
[15] = Clearance in C57BL/6J mouse at 5 mg/kg, iv or 20 mg/kg, po administered via gavage by LC-MS/MS analysis; assay type: ADME, organism-based; conditions: in vivo
[16] = Drug uptake in brain of diet-induced obese C57BL/6J mouse model at 3 mg/kg, po administered as daily dose measured at 2 hrs post last dose on day 23; assay type: ADME, organism-based; conditions: in vivo
[17] = biological target: Voltage-gated inwardly rectifying potassium channel KCNH2 (Homo sapiens, UniProt Q12809); assay: Inhibition of human ERG
[18] = Drug uptake in brain of diet-induced obese C57BL/6J mouse model at 10 mg/kg, po administered as daily dose measured at 2 hrs post last dose on day 2; assay type: ADME, organism-based; conditions: in vivo
[19] = Ratio of drug level in C57BL/6J mouse brain to plasma at 20 mg/kg, po measured after 4 hrs; assay type: ADME, organism-based; conditions: read-out: BPR
[20] = Half life in C57BL/6J mouse at 5 mg/kg, iv by LC-MS/MS analysis; assay type: ADME, organism-based; conditions: in vivo
Salmonella typhimurium = assay: Mutagenicity in Salmonella typhimurium by Ames test; assay type: toxicity, organism-based; conditions: salmonella enterica subsp. enterica serovar typhimurium
[21] = Ratio of drug level in brain to plasma of diet-induced obese C57BL/6J mouse model at 10 mg/kg, po administered as daily dose measured at 2 hrs post last dose on day 1; assay type: ADME, organism-based; conditions: read-out: BPR
[22] = Drug uptake in brain of diet-induced obese C57BL/6J mouse model at 30 mg/kg administered as daily dose measured at 2 hrs post last dose on day 5; assay type: ADME, organism-based; conditions: in vivo
[23] = Drug uptake in plasma of diet-induced obese C57BL/6J mouse model at 1 mg/kg, po administered as daily dose measured at 2 hrs post last dose on day 22; assay type: ADME, organism-based
Mus musculus [24] = assay: Antiobesity activity in diet induced obese C57BL/6J mouse model assessed as decrease in body weight at 30 mg/kg administered as daily dose measured every day for 5 days; assay type: functional, organism-based
[25] = Drug uptake in plasma of MDR1a knockout CF-1 mouse at 20 mg/kg, po measured at 2 hrs post last dose on day 1; assay type: ADME, organism-based
Cytochrome P450 2D6 = Cytochrome P450 2D6 (Homo sapiens, UniProt P10635); assay: Inhibition of CYP2D6 in human liver microsomes using dextromethorphan as substrate after 10 to 30 mins by LC/MS analysis; assay type: ADME
Cytochrome P450 2C19 = Cytochrome P450 2C19 (Homo sapiens, UniProt P33261); assay: Inhibition of CYP2C19 in human liver microsomes using (S)-mephenytoin as substrate after 10 to 30 mins by LC/MS analysis; assay type: ADME
Cannabinoid receptor 1 [26] = biological target: T1, Cannabinoid receptor 1; assay: biochemical; assay type: cell-based, CHO
[27] = Drug uptake in plasma of diet-induced obese C57BL/6J mouse model at 1 mg/kg, po administered as daily dose measured at 2 hrs post last dose on day 1; assay type: ADME, organism-based
[28] = Drug uptake in plasma of diet-induced obese C57BL/6J mouse model at 3 mg/kg, po administered as daily dose measured at 2 hrs post last dose on day 22; assay type: ADME, organism-based
Mus musculus [29] = assay: Antiobesity activity in diet induced obese C57BL/6J mouse model assessed as decrease in liver fat content at 3 to 10 mg/kg, po administered as daily dose measured at day 26 post last dose; assay type: functional, organism-based
[30] = Volume of distribution at steady state in C57BL/6J mouse at 5 mg/kg, iv or 20 mg/kg, po administered via gavage by LC-MS/MS analysis; assay type: ADME, organism-based; conditions: in vivo, read-out: Vdss
[31] = Tmax in C57BL/6J mouse at 5 mg/kg, iv or 20 mg/kg, po administered via gavage by LC-MS/MS analysis; assay type: ADME, organism-based; conditions: in vivo
[32] = AUClast in C57BL/6J mouse at 20 mg/kg, po administered via gavage by LC-MS/MS analysis; assay type: ADME, organism-based; conditions: in vivo
[33] = Drug uptake in C57BL/6J mouse plasma at 20 mg/kg, po measured after 1 hr; assay type: ADME, organism-based
[34] = Drug uptake in plasma of diet-induced obese C57BL/6J mouse model at 10 mg/kg, po administered as daily dose measured at 2 hrs post last dose on day 22; assay type: ADME, organism-based

T1 sequence (P21554 whole entry): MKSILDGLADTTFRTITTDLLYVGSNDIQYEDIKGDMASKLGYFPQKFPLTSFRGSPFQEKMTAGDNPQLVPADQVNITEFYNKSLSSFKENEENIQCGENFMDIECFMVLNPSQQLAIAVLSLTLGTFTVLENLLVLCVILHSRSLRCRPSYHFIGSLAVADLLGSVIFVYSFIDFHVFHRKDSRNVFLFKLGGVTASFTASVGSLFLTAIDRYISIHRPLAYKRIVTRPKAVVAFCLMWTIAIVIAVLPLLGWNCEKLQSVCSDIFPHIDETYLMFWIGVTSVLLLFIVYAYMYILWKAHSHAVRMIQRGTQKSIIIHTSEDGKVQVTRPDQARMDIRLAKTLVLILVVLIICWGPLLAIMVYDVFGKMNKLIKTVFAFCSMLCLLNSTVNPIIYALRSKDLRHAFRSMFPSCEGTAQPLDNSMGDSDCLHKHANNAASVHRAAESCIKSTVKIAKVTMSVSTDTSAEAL
Sequence of Cytochrome P450 3A4 (P08684 whole entry): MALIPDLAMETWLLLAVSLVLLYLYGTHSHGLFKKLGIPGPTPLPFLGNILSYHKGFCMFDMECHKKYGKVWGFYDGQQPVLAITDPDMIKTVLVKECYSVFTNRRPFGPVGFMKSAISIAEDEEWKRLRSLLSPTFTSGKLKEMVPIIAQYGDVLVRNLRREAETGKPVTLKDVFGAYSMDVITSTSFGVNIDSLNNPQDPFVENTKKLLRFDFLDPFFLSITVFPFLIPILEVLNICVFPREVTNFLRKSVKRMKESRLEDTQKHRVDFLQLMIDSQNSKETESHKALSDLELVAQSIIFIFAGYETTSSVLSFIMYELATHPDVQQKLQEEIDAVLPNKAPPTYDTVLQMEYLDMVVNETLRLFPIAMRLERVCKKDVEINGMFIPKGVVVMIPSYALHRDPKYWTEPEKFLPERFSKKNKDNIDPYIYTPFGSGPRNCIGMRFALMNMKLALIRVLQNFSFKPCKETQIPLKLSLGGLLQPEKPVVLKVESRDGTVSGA
Sequence of Cytochrome P450 2C19 (P33261 whole entry): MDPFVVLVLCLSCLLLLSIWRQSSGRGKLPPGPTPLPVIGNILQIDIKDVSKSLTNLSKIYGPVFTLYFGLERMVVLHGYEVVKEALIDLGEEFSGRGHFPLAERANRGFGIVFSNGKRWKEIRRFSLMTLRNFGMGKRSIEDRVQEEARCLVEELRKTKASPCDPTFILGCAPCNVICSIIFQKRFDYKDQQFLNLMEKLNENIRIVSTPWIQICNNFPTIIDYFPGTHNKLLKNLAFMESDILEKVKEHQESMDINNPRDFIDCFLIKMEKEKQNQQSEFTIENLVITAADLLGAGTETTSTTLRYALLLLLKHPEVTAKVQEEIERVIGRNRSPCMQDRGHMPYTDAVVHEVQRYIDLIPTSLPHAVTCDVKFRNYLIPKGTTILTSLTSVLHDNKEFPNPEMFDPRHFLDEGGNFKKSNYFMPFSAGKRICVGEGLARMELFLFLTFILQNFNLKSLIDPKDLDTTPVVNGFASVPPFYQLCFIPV
Sequence of Voltage-gated inwardly rectifying potassium channel KCNH2 (Q12809 whole entry): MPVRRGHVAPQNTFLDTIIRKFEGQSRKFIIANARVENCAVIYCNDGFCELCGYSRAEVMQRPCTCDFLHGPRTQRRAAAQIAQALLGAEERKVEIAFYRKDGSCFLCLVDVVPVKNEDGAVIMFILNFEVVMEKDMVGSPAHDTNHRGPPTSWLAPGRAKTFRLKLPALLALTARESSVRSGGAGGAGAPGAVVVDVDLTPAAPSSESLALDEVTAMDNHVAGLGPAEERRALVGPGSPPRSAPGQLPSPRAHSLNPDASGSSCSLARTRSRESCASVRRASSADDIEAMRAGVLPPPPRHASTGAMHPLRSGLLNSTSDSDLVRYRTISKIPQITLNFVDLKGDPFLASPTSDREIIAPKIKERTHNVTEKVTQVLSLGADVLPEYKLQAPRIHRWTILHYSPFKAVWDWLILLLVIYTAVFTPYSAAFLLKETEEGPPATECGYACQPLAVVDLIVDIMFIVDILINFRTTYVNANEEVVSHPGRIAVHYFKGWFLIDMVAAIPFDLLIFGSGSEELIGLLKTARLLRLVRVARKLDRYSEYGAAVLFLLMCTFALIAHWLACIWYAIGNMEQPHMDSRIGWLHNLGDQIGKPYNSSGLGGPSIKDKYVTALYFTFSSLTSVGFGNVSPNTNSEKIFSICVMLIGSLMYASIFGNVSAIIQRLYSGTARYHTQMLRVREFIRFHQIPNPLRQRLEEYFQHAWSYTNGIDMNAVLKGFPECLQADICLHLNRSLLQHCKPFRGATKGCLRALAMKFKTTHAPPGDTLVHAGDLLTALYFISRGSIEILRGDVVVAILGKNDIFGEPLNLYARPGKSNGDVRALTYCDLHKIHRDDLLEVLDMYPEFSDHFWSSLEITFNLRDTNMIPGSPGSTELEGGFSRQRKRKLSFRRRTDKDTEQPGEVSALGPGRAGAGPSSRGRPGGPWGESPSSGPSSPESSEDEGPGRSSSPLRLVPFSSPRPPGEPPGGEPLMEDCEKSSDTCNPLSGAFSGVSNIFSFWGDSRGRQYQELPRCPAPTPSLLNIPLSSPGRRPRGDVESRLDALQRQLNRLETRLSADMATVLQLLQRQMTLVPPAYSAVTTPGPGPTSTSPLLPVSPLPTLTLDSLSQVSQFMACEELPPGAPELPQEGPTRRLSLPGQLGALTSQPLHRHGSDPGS
Sequence of Cytochrome P450 2D6 (P10635 whole entry): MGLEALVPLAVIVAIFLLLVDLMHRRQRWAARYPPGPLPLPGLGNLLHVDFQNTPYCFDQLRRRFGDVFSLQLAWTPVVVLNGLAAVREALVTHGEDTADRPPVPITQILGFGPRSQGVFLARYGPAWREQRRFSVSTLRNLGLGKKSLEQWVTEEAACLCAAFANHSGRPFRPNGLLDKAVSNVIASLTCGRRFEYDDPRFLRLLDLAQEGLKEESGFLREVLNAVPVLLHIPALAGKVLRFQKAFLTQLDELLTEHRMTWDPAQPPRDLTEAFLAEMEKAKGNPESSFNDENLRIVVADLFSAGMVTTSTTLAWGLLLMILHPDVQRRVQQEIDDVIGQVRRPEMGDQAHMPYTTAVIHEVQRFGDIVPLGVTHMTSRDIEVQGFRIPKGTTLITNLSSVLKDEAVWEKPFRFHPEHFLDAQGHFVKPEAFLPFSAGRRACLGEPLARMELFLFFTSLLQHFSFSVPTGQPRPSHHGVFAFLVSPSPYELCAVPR

With `O=c1cc(NC2CCN(S(=O)(=O)C(F)(F)F)CC2)c2cc(C(c3ccc(Cl)cc3)c3ccc(Cl)cc3)ccc2[nH]1` the Activity (Mus musculus [1]) was “Active”, the Drug uptake [2] was 0.06 nmol/g and the Kp at 2 h [3] was 0.038. For the same compound, the Kp at 2 h [4] was 0.065, the Activity (Mus musculus [5]) was “Active” and the concentration at 4 h [6] was 1940 nM. It also gave a Drug uptake [7] of 0.329 nmol/g, a concentration at 2 h [8] of 3920 nM and a Ratio IC50 (Cannabinoid receptor 1 [9]) of 6. The Activity (Mus musculus [10]) was “Active”, the Activity (Mus musculus [11]) was “Active” and the Drug uptake [12] was < 4 nmol/g. For the same compound, the Activity (Mus musculus [13]) was “Active”, the IC50 (Cytochrome P450 3A4) was > 10 µM and the Kp [14] was 0.027. For the same compound, the clearance [15] was 2.21 mL/min/kg, the Drug uptake [16] was 0.164 nmol/g and the IC50 [17] was > 50 µM. For the same compound, the Drug uptake [18] was 0.102 nmol/g, the Kp at 4 h [19] was 0.0099 and the half-life [20] was 6.97 h. For the same compound, the Activity (Salmonella typhimurium) was “Non-Toxic”, the Kp at 2 h [21] was 0.026 and the Drug uptake [22] was 0.357 nmol/g. The concentration at 2 h [23] was 843 nM, the Activity (Mus musculus [24]) was “Active” and the concentration at 2 h [25] was 4950 nM. The IC50 (Cytochrome P450 2D6) was > 10 µM, the IC50 (Cytochrome P450 2C19) was > 10 µM and the IC50 (Cannabinoid receptor 1 [26]) was 0.0013 µM. The concentration at 2 h [27] was 508 nM, the concentration at 2 h [28] was 2550 nM and the Activity (Mus musculus [29]) was “Active”. For the same compound, the Vd [30] was 0.456 L/kg, the Tmax [31] was 2 h and the AUC(0-t) [32] was 28.4 µM·h. For the same compound, the concentration at 1 h [33] was 1720 nM and the concentration at 2 h [34] was 8650 nM.
